In patent publication US20070037807A1, “Pyridine compounds as inhibitors of dipeptidyl peptidase IV” (priority 2003, published 2007):
Counter-ions that a name gives are not always drawn.

system: not given; assay: not given; settings: not given

Row | melting point [°C] | Compound
1 | 56 to 57 | COC(=O)c1c(C)nc(CC(C)C)c(CN)c1-c1ccc(C)cc1 [Example 1, methyl 5-(aminomethyl)-6-isobutyl-2-methyl-4-(4-methylphenyl)nicotinate]
2 | 81 to 83 | Cc1nc(CC(C)C)c(CN)c(-c2ccc(Cl)cc2)c1C(=O)OC(C)(C)C [Example 23, tert-butyl 5-(aminomethyl)-4-(4-chlorophenyl)-6-isobutyl-2-methylnicotinate]

molecular target: T1, dipeptidyl peptidase IV (Rattus norvegicus, UniProt P14740); assay: Determination of dipeptidyl peptidase IV inhibitory activity in rat plasma; type: biochemical, SD rat; settings: not given
T1 construct: from tissue; host or cells: SD rat blood plasma
T1 sequence (P14740 37-767 limits assumed): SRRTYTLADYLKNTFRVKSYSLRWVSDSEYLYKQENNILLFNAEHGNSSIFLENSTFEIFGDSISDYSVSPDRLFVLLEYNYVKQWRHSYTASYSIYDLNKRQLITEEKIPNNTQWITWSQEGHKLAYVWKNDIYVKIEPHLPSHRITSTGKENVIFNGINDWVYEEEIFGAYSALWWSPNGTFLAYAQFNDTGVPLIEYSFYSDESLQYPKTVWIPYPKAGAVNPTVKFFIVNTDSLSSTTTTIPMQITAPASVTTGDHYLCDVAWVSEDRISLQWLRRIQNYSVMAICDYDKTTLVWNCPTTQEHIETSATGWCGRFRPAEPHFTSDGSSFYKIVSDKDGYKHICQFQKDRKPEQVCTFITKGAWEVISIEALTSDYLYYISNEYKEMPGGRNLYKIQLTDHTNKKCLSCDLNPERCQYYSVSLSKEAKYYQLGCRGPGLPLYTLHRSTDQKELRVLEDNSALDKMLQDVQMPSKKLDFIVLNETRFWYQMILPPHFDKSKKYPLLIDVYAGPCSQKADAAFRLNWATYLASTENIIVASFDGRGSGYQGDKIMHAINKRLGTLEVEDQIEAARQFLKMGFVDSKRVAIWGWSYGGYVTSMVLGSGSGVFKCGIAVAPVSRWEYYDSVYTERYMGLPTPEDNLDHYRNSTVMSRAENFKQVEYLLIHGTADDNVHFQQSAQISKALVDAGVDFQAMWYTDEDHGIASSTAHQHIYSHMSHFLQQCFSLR
Procedure: Determination of Dipeptidyl Peptidase IV Inhibitory Activity in Rat Plasma
An N,N-dimethylformamide solution (1 μL) containing the test compound was added to a mixture of water (69 μL), 1 M Tris-hydrochloride buffer (10 μL, pH 7.5) and 1 mM aqueous Gly-Pro-p-NA solution (100 μL) to prepare a mixed solution. […] At the same time, an increase (ΔODc) in absorbance of the reaction mixture without the test compound, and an increase (ΔODb) in absorbance of the reaction mixture without the test compound and the enzyme were determined and percent inhibition of dipeptidyl peptidase IV enzyme activity was calculated from the following formula: {1-[(ΔODs−ΔODb)/(ΔODc−ΔODb)]}×100

Row | Compound | IC50 [nM]
3 | Cc1ccc(-c2c(CN)c(CC(C)C)nc(C)c2C(=O)OCc2ccc(C(=O)O)cc2)cc1 [Example 170, 4-[({[5-(aminomethyl)-6-isobutyl-2-methyl-4-(4-methylphenyl)pyridin-3-yl]carbonyl}oxy)methyl]benzoic acid dihydrochloride] | 100

same assay, conditions: Experimental Example 1; SD rat plasma, Gly-Pro-p-NA substrate, 30° C., 1 hr, absorbance 405 nm; read-out: IC50 value (dipeptidyl peptidase IV inhibitory activity)

Row | IC50 [nM] | Compound
4 | 520 | COC(=O)c1c(C)nc(CC(C)C)c(CN)c1-c1ccc(C)cc1 [Example 1, methyl 5-(aminomethyl)-6-isobutyl-2-methyl-4-(4-methylphenyl)nicotinate]

same assay, conditions: Experimental Example 2; same manner as Experimental Example 1; SD rat plasma, Gly-Pro-p-NA substrate, 30° C.; read-out: IC50 value (dipeptidyl peptidase IV inhibitory activity)

Row | IC50 [nM] | Compound
5 | 5.1 | Cc1ccc(-c2c(CN)c(CC(C)C)nc(C(C)C)c2C(=O)O)cc1 [Example 26, 5-(aminomethyl)-6-isobutyl-2-isopropyl-4-(4-methylphenyl)nicotinic acid dihydrochloride]
6 | 12 | Cc1ccc(-c2c(CSc3ccccc3C(N)=O)c(C)nc(CC(C)C)c2CN)cc1 [Example 210, 2-({[5-(aminomethyl)-6-isobutyl-2-methyl-4-(4-methylphenyl)pyridin-3-yl]methyl}thio)benzamide dihydrochloride]
7 | 7.4 | Cc1ccc(-c2c(CN)c(CC(C)C)nc(C)c2NC(=O)c2ccc(F)cc2)cc1 [Example 267, N-[5-(aminomethyl)-6-isobutyl-2-methyl-4-(4-methylphenyl)pyridin-3-yl]-4-fluorobenzamide dihydrochloride]
8 | 3.5 | COC(=O)c1cn(C)nc1OCc1c(C)nc(CC(C)C)c(CN)c1-c1ccc(C)cc1 [Example 305, methyl 3-{[5-(aminomethyl)-6-isobutyl-2-methyl-4-(4-methylphenyl)pyridin-3-yl]methoxy}-1-methyl-1H-pyrazole-4-carboxylate dihydrochloride]
9 | 20 | Cc1ccc(-c2c(CC(=O)N3CCOCC3)c(C)nc(CC(C)C)c2CN)cc1 [Example 312, {[2-isobutyl-6-methyl-4-(4-methylphenyl)-5-(2-morpholin-4-yl-2-oxoethyl)pyridin-3-yl]methyl}amine dihydrochloride]
10 | 15 | Cc1ccc(-c2c(CN)c(CC(C)C)nc(C)c2NC(=O)c2cnoc2)cc1 [Example 350, N-[5-(aminomethyl)-6-isobutyl-2-methyl-4-(4-methylphenyl)pyridin-3-yl]isoxazole-4-carboxamide dihydrochloride]
11 | 16 | CCOC(=O)C1CCN(C(=O)Cc2c(C)nc(CC(C)C)c(CN)c2-c2ccc(C)cc2)CC1 [Example 421, ethyl 1-{[5-(aminomethyl)-6-isobutyl-2-methyl-4-(4-methylphenyl)pyridin-3-yl]acetyl}piperidine-4-carboxylate dihydrochloride]
12 | 7.3 | Cc1ccc(-c2c(CC(=O)N3CCC(C(=O)O)CC3)c(C)nc(CC(C)C)c2CN)cc1 [Example 422, 1-{[5-(aminomethyl)-6-isobutyl-2-methyl-4-(4-methylphenyl)pyridin-3-yl]acetyl}piperidine-4-carboxylic acid dihydrochloride]
